Assay results taken from patent publication US9738673B1, “Ferrocene derivative, preparation method and use thereof” (XIAMEN INSTITUTE OF RARE EARTH MATERIALS, priority 2016, dated 2017).

Tests used:
[1] = system: breast cancer cell line MCF-7; assay: In vitro anticancer activity MTT assay, MCF-7; assay type: cell-based, human; conditions: 48 h, MCF-7 cells
Method: (§1) Using a wavelength-tunable microplate reader absorbance value (A595) was measured at 595 nm. Inhibitory ratio was calculated with the following formula: […]
(§2) wherein, IC50 values were calculated using the GraphPad Prism 5 software.

[2] = system: human lung cancer cell line A549; assay: In vitro anticancer activity MTT assay, A549; assay type: cell-based; conditions: 48 h, A549 cells
Method: as §1, §2

[3] = system: colorectal cancer cell line HCT-116; assay: In vitro anticancer activity MTT assay, HCT116; assay type: cell-based, human; conditions: 48 h, HCT116 cells
Method: as §1, §2

## CCc1ccc(-c2cc(COC(=O)[c-]3cccc3)on2)cc1.CCc1ccc(-c2cc(COC(=O)[c-]3cccc3)on2)cc1.[Fe+2] [YJP-3]
[1]
  IC50: 86.8 µM

## Cc1cc(C)c(-c2cc(COC(=O)[c-]3cccc3)on2)c(C)c1.Cc1cc(C)c(-c2cc(COC(=O)[c-]3cccc3)on2)c(C)c1.[Fe+2] [YJP-5]
[1]
  IC50: 142 µM
[2]
  IC50: 189 µM

## COc1cccc(-c2cc(COC(=O)[c-]3cccc3)on2)c1.COc1cccc(-c2cc(COC(=O)[c-]3cccc3)on2)c1.[Fe+2] [YJP-8]
[1]
  IC50: 138 µM
[3]
  IC50: 236 µM
[2]
  IC50: 142 µM

## COc1ccccc1-c1cc(COC(=O)[c-]2cccc2)on1.COc1ccccc1-c1cc(COC(=O)[c-]2cccc2)on1.[Fe+2] [YJP-7]
[1]
  IC50: 157 µM
[2]
  IC50: 868 µM

## O=C(OCc1cc(-c2ccc(C(F)(F)F)cc2)no1)[c-]1cccc1.O=C(OCc1cc(-c2ccc(C(F)(F)F)cc2)no1)[c-]1cccc1.[Fe+2] [YJP-9]
[1]
  IC50: 133 µM

## O=C(OCc1cc(-c2ccc(Br)cc2)no1)[c-]1cccc1.O=C(OCc1cc(-c2ccc(Br)cc2)no1)[c-]1cccc1.[Fe+2] [YJP-16]
[1]
  IC50: 156 µM
[3]
  IC50: 63.9 µM
[2]
  IC50: 251 µM

## O=C(OCc1cc(-c2ccc(F)cc2)no1)[c-]1cccc1.O=C(OCc1cc(-c2ccc(F)cc2)no1)[c-]1cccc1.[Fe+2] [YJP-11]
[1]
  IC50: 138 µM
[2]
  IC50: 2860 µM

## CC(C)(C)c1ccc(-c2cc(COC(=O)[c-]3cccc3)on2)cc1.CC(C)(C)c1ccc(-c2cc(COC(=O)[c-]3cccc3)on2)cc1.[Fe+2] [YJP-4]
[1]
  IC50: 150 µM
[3]
  IC50: 2180 µM
[2]
  IC50: 220 µM

## O=C(OCc1cc(-c2ccccc2Cl)no1)[c-]1cccc1.O=C(OCc1cc(-c2ccccc2Cl)no1)[c-]1cccc1.[Fe+2] [YJP-14]
[1]
  IC50: 172 µM
[3]
  IC50: 228 µM
[2]
  IC50: 450 µM

## O=C(OCc1cc(-c2ccccc2)no1)[c-]1cccc1.O=C(OCc1cc(-c2ccccc2)no1)[c-]1cccc1.[Fe+2] [YJP-1]
[1]
  IC50: 990 µM
[2]
  IC50: 252 µM

## COc1ccc(-c2cc(COC(=O)[c-]3cccc3)on2)cc1.COc1ccc(-c2cc(COC(=O)[c-]3cccc3)on2)cc1.[Fe+2] [YJP-6]
[1]
  IC50: 182 µM

## O=C(OCc1cc(-c2ccc([N+](=O)[O-])cc2)no1)[c-]1cccc1.O=C(OCc1cc(-c2ccc([N+](=O)[O-])cc2)no1)[c-]1cccc1.[Fe+2] [YJP-19]
[1]
  IC50: 178 µM
[3]
  IC50: 157 µM
[2]
  IC50: 530 µM

## O=C(OCc1cc(-c2ccc(Cl)cc2Cl)no1)[c-]1cccc1.O=C(OCc1cc(-c2ccc(Cl)cc2Cl)no1)[c-]1cccc1.[Fe+2] [YJP-15]
[1]
  IC50: 190 µM
[3]
  IC50: 234 µM
[2]
  IC50: 222 µM

## O=C(OCc1cc(-c2ccc(Cl)cc2)no1)[c-]1cccc1.O=C(OCc1cc(-c2ccc(Cl)cc2)no1)[c-]1cccc1.[Fe+2] [YJP-13]
[1]
  IC50: 169 µM
[3]
  IC50: 486 µM
[2]
  IC50: 690 µM

## Cc1ccc(-c2cc(COC(=O)[c-]3cccc3)on2)cc1.Cc1ccc(-c2cc(COC(=O)[c-]3cccc3)on2)cc1.[Fe+2] [YJP-2]
[1]
  IC50: 136 µM
[3]
  IC50: 220 µM
[2]
  IC50: 198 µM

## O=C(OCc1cc(-c2ccccc2F)no1)[c-]1cccc1.O=C(OCc1cc(-c2ccccc2F)no1)[c-]1cccc1.[Fe+2] [YJP-12]
[1]
  IC50: 159 µM
[3]
  IC50: 149 µM
[2]
  IC50: 168 µM
